Experimental data reported in PMC8775498, “Development of Cobalt-Binding Peptide Chelate from Human Serum Albumin: Cobalt-Binding Properties and Stability” (International Journal of Molecular Sciences, 2022).
Where a SMILES comes first, the peptide text is derived from it.

What was measured:
HEK 293T cells = format: cell-based, human
Method: (§1) RAW 264.7 and HEK 293T cells were cultured at 37 °C under 5% CO2 in 95% DMEM supplemented with 10% FBS and 1% P/S antibiotics. The RAW 264.7 and HEK 293T cells were harvested in 3 mL of DMEM, and centrifugation was performed at 1200× g using the AllegraTM X-12R centrifuge (BECKMAN COULTER). The cell pellet was resuspended in 1 mL of DMEM. The number of cells was counted using a hemocytometer. The cell viability was measured using MTT assay according to the method of Mirzapour-Kouhdasht, Moosavi-Nasab, with a few modifications. The cells were first plated at a density of a 5 × 10^4 cells/well in a 96-well plate. After overnight incubation, the wAlb12 and wAlb12 + Co(II) each dissolved in buffer were used to treat the cells by concentration, which were then incubated for 24 h at 37 °C. Next, 10 µL of 5 mg mL^−1 MTT stock solution was added to each well, and the plate was incubated for 4 h at 37 °C. Next, the medium was removed and 100 µL of DMSO was added to each well to lyse the cells. The treated cells were incubated at 37 °C for 20 min and their absorbance was measured at a wavelength of 600 nm using an ELISA reader (Autobio, Phomo). The percentage viability was calculated using the following formula:Cell viability (%) = [(As) − (Ab)]/[(Ac) − (Ab)] × 100 where As, Ab, and Ac are the absorbance values of the peptide-treated cells, blank, and control samples, respectively.

in vitro = format: cell-based, rat; details: mouse, RAW 264.7 cells
Method: as §1

[1] = LC-MS analysis of Co(II) binding (alanine scanning analogs); details: 0.5 mM peptide mixed with 0.5 mM CoCl2; judged by change in molecular weight (about 56) and retention time in LC-MS
Method: A mutation was performed to identify the binding properties of wAlb12. […] amino acids of wAlb12 were substituted with alanine and the remaining alanine of wAlb12 was substituted with serine (D1A, A2S, H3A, K4A, S5A, E6A, V7A, A8S, H9A, R10A, F11A, and K12A). In addition, the N-terminal region of wAlb12 was acetylated (Ac-wAlb12). The only N-terminal α-amino group of wAlb12 was acetylated under 70% DCM, 25% acetic anhydride, and 5% triethylamine for 2 h after Fmoc cleavage by 20% piperidine. All of the analogs were synthesized by SPPS, and the purity and molecular weight were confirmed using liquid chromatography-mass spectrometry (LC-MS). The high-performance liquid chromatography (HPLC) gradient program was set up with 5% to 35% buffer B for 15 min, and the molecular weights of the prepared analogs were confirmed using MS in the range of 200 to 1800 m/z.
To verify the binding of peptides to Co(II), HPLC and LC-MS were performed to confirm the retention time and molecular weight. RT-HPLC analyses were performed using Shimadzu 10AD system with a Sunfire® column (C18 5 μm 4.6 mm × 250 mm, Waters, Milford, MA, USA) and a flow rate of 1 mL/min with buffer B (100% acetonitrile containing 0.05% TFA) and buffer A (100% H2O containing 0.05% TFA). The eluted components were monitored at an absorbance of 230 nm with a gradient from 5% to 35% of buffer B for 15 min. […]

Binding (adding Co(II)) [1] | Compound | toxicity to HEK 293T cells (HEK 293T cells) | viability at 24 h (in vitro)
– | CC(C)[C@H](NC(=O)[C@H](CCC(=O)O)NC(=O)[C@H](CO)NC(=O)[C@H](CCCCN)NC(=O)[C@H](Cc1c[nH]cn1)NC(=O)[C@H](C)NC(=O)[C@@H](N)CC(=O)O)C(=O)N[C@@H](C)C(=O)N[C@@H](Cc1c[nH]cn1)C(=O)N[C@@H](CCCNC(=N)N)C(=O)N[C@@H](Cc1ccccc1)C(=O)N[C@@H](CCCCN)C(N)=O [wAlb12] (H-DAHKSEVAHRFK-NH2) | non-toxic | > 100%
not bound and No | Ac-DAHKSEVAHRFK [Ac-wAlb12, wAlb12 with acetylated N-terminal α-amino group] | – | –
